Biological target: T1, GCS (Canis lupus familiaris, UniProt A0A8I3MXG6)
T1 construct: endogenous in cells; host or cells: MDCK (Madin-Darby canine kidney) cells, whole-cell lysate
T1 sequence (A0A8I3MXG6 1-394): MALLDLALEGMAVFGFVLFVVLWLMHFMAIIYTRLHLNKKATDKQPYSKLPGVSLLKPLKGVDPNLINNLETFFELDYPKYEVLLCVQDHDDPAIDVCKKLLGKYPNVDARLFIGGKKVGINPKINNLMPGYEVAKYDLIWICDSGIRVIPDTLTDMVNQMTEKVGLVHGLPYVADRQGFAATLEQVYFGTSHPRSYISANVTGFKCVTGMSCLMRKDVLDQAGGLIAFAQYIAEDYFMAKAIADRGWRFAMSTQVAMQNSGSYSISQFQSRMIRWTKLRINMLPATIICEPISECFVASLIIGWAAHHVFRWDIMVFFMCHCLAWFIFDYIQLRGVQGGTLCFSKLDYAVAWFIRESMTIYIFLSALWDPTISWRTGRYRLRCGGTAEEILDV
Assay: GCS enzymatic assay (MDCK cell lysate, NBD-ceramide to glucosylceramide, LC/MS)
Format: biochemical, canine
Details: Table 2; class symbols A, B, C; the table does not say which of the assays; read-out: Data Range (IC50 values)
Procedure, shortened: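 IC50 or percent inhibition came from LC/MS/MS (ESI+, MRM) of NBD-ceramide and glucosylceramide, with tolbutamide as internal standard. The reaction used MDCK (canine) cell lysate as the enzyme source and was ended with acetonitrile. Mock wells received 0.1% DMSO.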

IC50 [nM]	Structure (SMILES)
1 to 30	O=C(N[C@H](CN1CCCC1)[C@H](O)c1ccc(OC2CC2)c(Cl)c1)[C@H]1CCN(c2ccc(Cl)cn2)C1 [Compound 57A, (S)-N-((1R,2R)-1-(3-chloro-4-cyclopropoxyphenyl)-1-hydroxy-3-(pyrrolidin-1-yl)propan-2-yl)-1-(5-chloropyridin-2-yl)pyrrolidine-3-carboxamide]
1 to 30	O=C(N[C@H](CN1CCCC1)[C@H](O)c1ccc(OCCN2CCC2)c(Cl)c1)[C@@H]1CCN(c2ccc(Cl)cc2)C1 [Compound 60, (R)-N-((1R,2R)-1-(4-(2-(azetidin-1-yl)ethoxy)-3-chlorophenyl)-1-hydroxy-3-(pyrrolidin-1-yl)propan-2-yl)-1-(4-chlorophenyl)pyrrolidine-3-carboxamide]
1 to 30	Cn1ncc2ccc(N3CCC(C(=O)N[C@H](CN4CCCC4)[C@H](O)c4ccc5c(c4)OCCO5)C3)cc21 (stereo partly drawn) [Compound 61C, N-((1R,2R)-1-(2,3-dihydrobenzo[b][1,4]dioxin-6-yl)-1-hydroxy-3-(pyrrolidin-1-yl)propan-2-yl)-1-(1-methyl-1H-indazol-6-yl)pyrrolidine-3-carboxamide]
1 to 30	Cn1ncc2ccc(N3CC[C@H](C(=O)N[C@H](CN4CCCC4)[C@H](O)c4ccc5c(c4)OCCO5)C3)cc21 [Compound 61D, (S)-N-((1R,2R)-1-(2,3-dihydrobenzo[b][1,4]dioxin-6-yl)-1-hydroxy-3-(pyrrolidin-1-yl)propan-2-yl)-1-(1-methyl-1H-indazol-6-yl)pyrrolidine-3-carboxamide]
1 to 30	O=C(N[C@H](CN1CCCC1)[C@H](O)c1ccc(OC2CC2)c(F)c1)[C@@H]1CCN(c2ccc(Cl)cc2)C1 [Compound 65, (R)-1-(4-chlorophenyl)-N((1R,2R)-1-(4-cyclopropoxy-3-fluorophenyl)-1-hydroxy-3-(pyrrolidin-1-yl)propan-2-yl)pyrrolidine-3-carboxamide]

Same assay, conditions: Table 2; class symbols D, E, F, NA (not active); the table does not say which of the assays

Data Range (% inhibition)	Structure (SMILES)
F (1-49% (or less than 50%))	O=C(N[C@H](CN1CCCC1)[C@H](O)c1ccc2c(c1)OCCO2)[C@@H]1CCN(C2Cc3ccccc3C2)C1 [Compound 55, (R)-1-(2,3-dihydro-1H-inden-2-yl)-N-((1R,2R)-1-(2,3-dihydrobenzo[b][1,4]dioxin-6-yl)-1-hydroxy-3-(pyrrolidin-1-yl)propan-2-yl)pyrrolidine-3-carboxamide]
F (1-49% (or less than 50%))	O=C(N[C@H](CN1CCCC1)[C@H](O)c1ccc2c(c1)OCCO2)C1CCN(C2Cc3ccccc3C2)C1 (stereo partly drawn) [Compound 55A, 1-(2,3-dihydro-1H-inden-2-yl)-N-((1R,2R)-1-(2,3-dihydrobenzo[b][1,4]dioxin-6-yl)-1-hydroxy-3-(pyrrolidin-1-yl)propan-2-yl)pyrrolidine-3-carboxamide]
F (1-49% (or less than 50%))	O=C(N[C@H](CN1CCCC1)[C@H](O)c1ccc2c(c1)OCCO2)[C@H]1CCN(C2Cc3ccccc3C2)C1 [Compound 55B, (S)-1-(2,3-dihydro-1H-inden-2-yl)-N-((1R,2R)-1-(2,3-dihydrobenzo[b][1,4]dioxin-6-yl)-1-hydroxy-3-(pyrrolidin-1-yl)propan-2-yl)pyrrolidine-3-carboxamide]
F (1-49% (or less than 50%))	O=C(N[C@H](CN1CCCC1)[C@H](O)c1ccc2c(c1)OCCO2)[C@@H]1CCN(c2ccnc(OC3CC3)c2)C1 [Compound 56, (R)-1-(2-cyclopropoxypyridin-4-yl)-N-((1R,2R)-1-(2,3-dihydrobenzo[b][1,4]dioxin-6-yl)-1-hydroxy-3-(pyrrolidin-1-yl)propan-2-yl)pyrrolidine-3-carboxamide]
F (1-49% (or less than 50%))	O=C(N[C@H](CN1CCCC1)[C@H](O)c1ccc2c(c1)OCCO2)C1CCN(c2ccnc(OC3CC3)c2)C1 (stereo partly drawn) [Compound 56D, 1-(2-cyclopropoxypyridin-4-yl)-N-((1R,2R)-1-(2,3-dihydrobenzo[b][1,4]dioxin-6-yl)-1-hydroxy-3-(pyrrolidin-1-yl)propan-2-yl)pyrrolidine-3-carboxamide]
F (1-49% (or less than 50%))	O=C(N[C@H](CN1CCCC1)[C@H](O)c1ccc2c(c1)OCCO2)[C@H]1CCN(c2ccnc(OC3CC3)c2)C1 [Compound 56E, (S)-1-(2-cyclopropoxypyridin-4-yl)-N-((1R,2R)-1-(2,3-dihydrobenzo[b][1,4]dioxin-6-yl)-1-hydroxy-3-(pyrrolidin-1-yl)propan-2-yl)pyrrolidine-3-carboxamide]
F (1-49% (or less than 50%))	O=C(N[C@H](CN1CCCC1)[C@H](O)c1ccc(OC2CC2)c(Cl)c1)[C@@H]1CCN(c2ccc(Cl)cn2)C1 [Compound 57, (R)-N-((1R,2R)-1-(3-chloro-4-cyclopropoxyphenyl)-1-hydroxy-3-(pyrrolidin-1-yl)propan-2-yl)-1-(5-chloropyridin-2-yl)pyrrolidine-3-carboxamide]
E (50-74% (or less than 75%))	O=C(N[C@H](CN1CCCC1)[C@H](O)c1ccc2c(c1)OCCO2)[C@@H]1CCN(c2ccc(OC3CC3)nc2)C1 [Compound 58, (R)-1-(6-cyclopropoxypyridin-3-yl)-N-((1R,2R)-1-(2,3-dihydrobenzo[b][1,4]dioxin-6-yl)-1-hydroxy-3-(pyrrolidin-1-yl)propan-2-yl)pyrrolidine-3-carboxamide]
F (1-49% (or less than 50%))	O=C(N[C@H](CN1CCCC1)[C@H](O)c1ccc2c(c1)OCCO2)[C@H]1CCN(c2ccc(OC3CC3)nc2)C1 [Compound 58D, (S)-1-(6-cyclopropoxypyridin-3-yl)-N-((1R,2R)-1-(2,3-dihydrobenzo[b][1,4]dioxin-6-yl)-1-hydroxy-3-(pyrrolidin-1-yl)propan-2-yl)pyrrolidine-3-carboxamide]
F (1-49% (or less than 50%))	O=C(N[C@H](CN1CCCC1)[C@H](O)c1ccc(OC2COC2)c(Cl)c1)[C@@H]1CCN(c2ccc(Cl)cc2)C1 [Compound 59, (R)-N-((1R,2R)-1-(3-chloro-4-(oxetan-3-yloxy)phenyl)-1-hydroxy-3-(pyrrolidin-1-yl)propan-2-yl)-1-(4-chlorophenyl)pyrrolidine-3-carboxamide]
F (1-49% (or less than 50%))	CN1CCc2ccc(N3CC[C@@H](C(=O)N[C@H](CN4CCCC4)[C@H](O)c4ccc5c(c4)OCCO5)C3)cc2C1 [Compound 63, (R)-N-((1R,2R)-1-(2,3-dihydrobenzo[b][1,4]dioxin-6-yl)-1-hydroxy-3-(pyrrolidin-1-yl)propan-2-yl)-1-(2-methyl-1,2,3,4-tetrahydroisoquinolin-7-yl)pyrrolidine-3-carboxamide]
F (1-49% (or less than 50%))	CN1CCc2ccc(N3CCC(C(=O)N[C@H](CN4CCCC4)[C@H](O)c4ccc5c(c4)OCCO5)C3)cc2C1 (stereo partly drawn) [Compound 63C, N-((1R,2R)-1-(2,3-dihydrobenzo[b][1,4]dioxin-6-yl)-1-hydroxy-3-(pyrrolidin-1-yl)propan-2-yl)-1-(2-methyl-1,2,3,4-tetrahydroisoquinolin-7-yl)pyrrolidine-3-carboxamide]
F (1-49% (or less than 50%))	CC1(C)CCc2cc(N3CCC(C(=O)N[C@H](CN4CCCC4)[C@H](O)c4ccc5c(c4)OCCO5)C3)ccc2O1 (stereo partly drawn) [Compound 64, N-((1R,2R)-1-(2,3-dihydrobenzo[b][1,4]dioxin-6-yl)-1-hydroxy-3-(pyrrolidin-1-yl)propan-2-yl)-1-(2,2-dimethylchroman-6-yl)pyrrolidine-3-carboxamide]

Structure (SMILES)	Data Range (% inhibition)
O=C(N[C@H](CN1CCCC1)[C@H](O)c1ccc(OCCN2CCC2)c(Cl)c1)[C@H]1CCN(c2ccc(Cl)cc2)C1 [Compound 60A, (S)-N-((1R,2R)-1-(4-(2-(azetidin-1-yl)ethoxy)-3-chlorophenyl)-1-hydroxy-3-(pyrrolidin-1-yl)propan-2-yl)-1-(4-chlorophenyl)pyrrolidine-3-carboxamide]	NA (not active—a negative value was generated for % inhibition)
Cn1ncc2ccc(N3CC[C@@H](C(=O)N[C@H](CN4CCCC4)[C@H](O)c4ccc5c(c4)OCCO5)C3)cc21 [Compound 61, (R)-N-((1R,2R)-1-(2,3-dihydrobenzo[b][1,4]dioxin-6-yl)-1-hydroxy-3-(pyrrolidin-1-yl)propan-2-yl)-1-(1-methyl-1H-indazol-6-yl)pyrrolidine-3-carboxamide]	NA (not active—a negative value was generated for % inhibition)
O=C(N[C@H](CN1CCCC1)[C@H](O)c1ccc(OC2COC2)nc1)[C@@H]1CCN(c2ccc(Cl)cc2)C1 [Compound 62, (R)-1-(4-chlorophenyl)-N-((1R,2R)-1-hydroxy-1-(6-(oxetan-3-yloxy)pyridin-3-yl)-3-(pyrrolidin-1-yl)propan-2-yl)pyrrolidine-3-carboxamide]	NA (not active—a negative value was generated for % inhibition)
CN1CCc2ccc(N3CC[C@H](C(=O)N[C@H](CN4CCCC4)[C@H](O)c4ccc5c(c4)OCCO5)C3)cc2C1 [Compound 63D, (S)-N-((1R,2R)-1-(2,3-dihydrobenzo[b][1,4]dioxin-6-yl)-1-hydroxy-3-(pyrrolidin-1-yl)propan-2-yl)-1-(2-methyl-1,2,3,4-tetrahydroisoquinolin-7-yl)pyrrolidine-3-carboxamide]	NA (not active—a negative value was generated for % inhibition)
